Assay results as given in patent US5541163A, “Renin inhibiting N-(2-amino-2-oxoethyl)butanediamide derivatives” (Bio-Mega/Boehringer Ingelheim Research Inc., priority 1993, dated 1996).

These compounds were tested against T1, human renin (Homo sapiens, UniProt P00797) (assay: Plasma renin assay (inhibition of human renin, angiotensin I by RIA)). Settings: human plasma pool, pH 6.0, 2 h incubation at 37°.
T1 construct: A human plasma pool is used as the source of both the substrate (angiotensinogen) and the enzyme (renin); from tissue; host or cells: human plasma pool
T1 sequence (P00797 67-406): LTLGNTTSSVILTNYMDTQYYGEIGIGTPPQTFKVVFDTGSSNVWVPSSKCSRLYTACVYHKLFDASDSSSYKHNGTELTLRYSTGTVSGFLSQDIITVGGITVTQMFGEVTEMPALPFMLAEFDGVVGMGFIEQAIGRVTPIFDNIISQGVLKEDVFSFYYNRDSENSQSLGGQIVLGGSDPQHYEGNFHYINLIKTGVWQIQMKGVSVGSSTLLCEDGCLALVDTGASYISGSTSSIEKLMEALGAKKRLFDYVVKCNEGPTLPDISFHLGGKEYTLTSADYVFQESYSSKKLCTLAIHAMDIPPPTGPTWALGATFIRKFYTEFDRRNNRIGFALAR
Format: biochemical
Method: The assay is performed as follows: The test compound (i.e. the inhibitor) is dissolved in dimethylsulfoxide (1 mM stock solution) and diluted with an aqueous buffer solution of 270 mM 2-(N-morpholino)ethanesulfonic acid and 1% human serum albumin (pH 5.85, also containing dimercaprol and 8-hydroxyquinoline sulfate in accordance with the instructions of the RIA kit noted below) to give an assay mixture in which the final dimethylsulfoxide content is 1% (v/v).
A human plasma pool is used as the source of both the substrate (angiotensinogen) and the enzyme (renin). The reaction is initiated by the addition of 50 μL of human plasma pool to 50 μL of various concentrations of inhibitor in the 1% dimethylsulfoxide assay buffer. The plasma renin activity is measured by the amount of angiotensin I generated at pH 6.0 following a 2 h incubation at 37°.
Quantitation of angiotensin I is performed by radioimmunoassay (RIA kit from New England Nuclear-Dupont, Mississauga, ON, Canada). The enzymatic activity of renin is expressed in ng of angiotensin I generated (/mL/2 h). The extent of inhibition of the reaction is determined from the amount of angiotensin I generated in reference to a control prepared without inhibitor. Nonlinear regression analysis is used to calculate the IC50 values, i.e. the molar concentration of the test compound required to cause a 50% inhibition of the enzyme activity.

SMILES | IC50
CC(C)C[C@H](O)[C@H](O)[C@H](CC1CCCCC1)NC(=O)[C@@H](CC(=O)N(CCc1ccccc1)CC(=O)N(C)C)Cc1csc(N)n1 [Compound 60, N^4-[2-(dimethylamino)-2-oxoethyl]-N^4-(2-phenylethyl)-N^1-[1(S)-(cyclohexylmethyl)-2(R),3(S)-dihydroxy-5-methylhexyl]-2(R)-[(2-amino-4-thiazolyl)methyl]butanediamide] | 5 nM
CC(C)C[C@H](O)[C@H](O)[C@H](CC1CCCCC1)NC(=O)[C@@H](CC(=O)N(CC(=O)N(C)C)Cc1ccccn1)CC1CC1 [Compound 13, N^4-[2-(dimethylamino)-2-oxoethyl]-N^4-(2-pyridinylmethyl)-N^1-[1(S)-(cyclohexylmethyl)-2(R),3(S)-dihydroxy-5-methylhexyl]-2(R)-(cyclopropylmethyl)butanediamide] | 120 nM
CC(C)C[C@H](O)[C@H](O)[C@H](CC1CCCCC1)NC(=O)[C@@H](CC(=O)N(CC(=O)N1CCOCC1)Cc1ccccc1)CC1CC1 [Compound 1, N^4-benzyl-N^4-(2-morpholino-2-oxoethyl)-N^1-[1(S)-(cyclohexylmethyl)-2(R),3(S)-dihydroxy-5-methylhexyl]-2(R)-(cyclopropylmethyl)butanediamide] | 94 nM
CC(C)C[C@H](O)[C@H](O)[C@H](CC1CCCCC1)NC(=O)[C@@H](CC(=O)N(CC(=O)N(C)C)[C@H](C)c1ccccc1)CC1CC1 [Compound 16, N^4-[2-(dimethylamino)-2-oxoethyl]-N^4-[1(R)-phenylethyl]-N^1-[1(S)-(cyclohexylmethyl)-2(R),3(S)-dihydroxy-5-methylhexyl]-2(R)-(cyclopropylmethyl)butanediamide] | 460 nM
CC(C)C[C@H](O)[C@H](O)[C@H](CC1CCCCC1)NC(=O)[C@@H](CC(=O)N(CC(=O)N(C)C)[C@@H](C)c1cccc2ccccc12)CC1CC1 [Compound 18, N^4-[2-(dimethylamino)-2-oxoethyl]-N^4-[1(S)-(1-naphthylethyl)]-N^1-[1(S)-(cyclohexylmethyl)-2(R),3(S)-dihydroxy-5-methylhexyl]-2(R)-(cyclopropylmethyl)butanediamide] | 170 nM
CC(C)C[C@H](O)[C@H](O)[C@H](CC1CCCCC1)NC(=O)[C@@H](CC(=O)N(CC(N)=O)Cc1ccccc1)CC1CC1 [Compound 7, N^4-(2-amino-2-oxoethyl)-N^4-benzyl-N^1-[1(S)-(cyclohexylmethyl)-2(R),3(S)-dihydroxy-5-methylhexyl]-2(R)-(cyclopropylmethyl)-butanediamide] | 395 nM
CC(C)C[C@H](O)[C@H](O)[C@H](CC1CCCCC1)NC(=O)[C@@H](CC(=O)N(CCc1ccccc1)CC(=O)N(C)C)CC1CC1 [Compound 3, N^4-[2-(dimethylamino)-2-oxoethyl]-N^4-(2-phenylethyl)-N^1-[1(S)-(cyclohexylmethyl)-2(R),3(S)-dihydroxy-5-methylhexyl]-2(R)-(cyclopropylmethyl)butanediamide] | 59 nM
CC(C)C[C@H](O)[C@H](O)[C@H](CC1CCCCC1)NC(=O)[C@@H](CC(=O)N(CC(=O)N(C)C)[C@@H](C)c1ccccc1)Cc1cccs1 [Compound 32, N^4-(2-(dimethylamino)-2-oxoethyl]-N^4-(1(S)-phenylethyl]-N^1-[1(S)-(cyclohexylmethyl)-2(R),3(S)-dihydroxy-5-methylhexyl]-2(S)-(2-thienylmethyl)butanediamide] | 13 nM
CC(C)C[C@H](O)[C@H](O)[C@H](CC1CCCCC1)NC(=O)[C@@H](CC(=O)N(CC(=O)N(C)C)C[C@H](C)c1ccccc1)CC1CC1 [Compound 19, N^4-[2-(dimethylamino)-2-oxoethyl]-N^4-[2(R)-phenylpropyl]-N^1-[1(S)-(cyclohexylmethyl)-2(R),3(S)-dihydroxy-5-methylhexyl]-2(R)-(cyclopropylmethyl)butanediamide] | 69 nM
CC(C)C[C@H](O)[C@H](O)[C@H](CC1CCCCC1)NC(=O)[C@@H](CC(=O)N(CC(=O)N(C)C)[C@@H](C)c1ccccc1)CC1CC1 [Compound 17, N^4-[2-(dimethylamino)-2-oxoethyl]-N^4-[1(S)-phenylethyl]-N^1-[1(S)-(cyclohexylmethyl)-2(R),3(S)-dihydroxy-5-methylhexyl]-2(R)-(cyclopropylmethyl)butanediamide] | 34 nM
CC(C)C[C@H](O)[C@H](O)[C@H](CC1CCCCC1)NC(=O)[C@@H](CC(=O)N(CC(=O)N(C)C)CC(C)(C)c1ccccc1)CC1CC1 [Compound 21, N^4-[2-(dimethylamino)-2-oxoethyl]-N^4-(2-methyl-2-phenylpropyl)-N^1-[1(S)-(cyclohexylmethyl)-2(R),3(S)-dihydroxy-5-methylhexyl]-2(R)-(cyclopropylmethyl)butanediamide] | 150 nM
CC(C)C[C@H](O)[C@H](O)[C@H](CC1CCCCC1)NC(=O)[C@@H](CC(=O)N(CC(=O)N1CCOCC1)CC1CCCCC1)Cc1ccccn1 [Compound 67, N^4-(cyclohexylmethyl)-N^4-(2-morpholino-2-oxoethyl)-N^1-[1(S)-(cyclohexylmethyl)-2(R),3(S)-dihydroxy-5-methylhexyl]-2(R)-(2-pyridinylmethyl)butanediamide] | 4 nM
CCN(CC)C(=O)CN(Cc1ccccc1)C(=O)C[C@@H](CC1CC1)C(=O)N[C@@H](CC1CCCCC1)[C@@H](O)[C@@H](O)CC(C)C [Compound 11, N^4-benzyl-N^4-[2-(diethylamino)-2-oxoethyl]-N^1-[1(S)-(cyclohexylmethyl)-2(R),3(S)-dihydroxy-5-methylhexyl]-2(R)-(cyclopropylmethyl)-butanediamide] | 140 nM

Now those with a lower IC50, led by results:

IC50 | SMILES
1.5 nM | CC(C)C[C@H](O)[C@H](O)[C@H](CC1CCCCC1)NC(=O)[C@@H](CC(=O)N(CC(=O)N(C)C)CC1CCCCC1)Cc1cscn1 [Compound 36, N^4-(cyclohexylmethyl)-N^4-[2-(dimethylamino)-2-oxoethyl]-N^1-[1(S)-(cyclohexylmethyl)-2(R),3(S)-dihydroxy-5-methylhexyl]-2(R)-(4-thiazolylmethyl)butanediamide]
0.9 nM | CC(C)C[C@H](O)[C@H](O)[C@H](CC1CCCCC1)NC(=O)[C@@H](CC(=O)N(CC(=O)N(C)C)CC1CCCCC1)Cc1csc(N)n1 [Compound 48, N^4-(cyclohexylmethyl)-N^4-[2-(dimethylamino)-2-oxoethyl]-N^1-[1(S)-(cyclohexylmethyl)-2(R),3(S)-dihydroxy-5-methylhexyl]-2(R)-[(2-amino-4-thiazolyl)methyl]butanediamide]
2.4 nM | C[C@@H](c1ccccc1)N(CC(=O)N(C)C)C(=O)C[C@@H](Cc1csc(N)n1)C(=O)N[C@@H](CC1CCCCC1)[C@@H](O)[C@@H]1CC(C)(C)N(C)C1=O [Compound 44, N^4-[2-(dimethylamino)-2-oxoethyl]-N^4-[1(S)-phenylethyl]-N^1-[1(S)-(cyclohexylmethyl)-2(S)-hydroxy-2-(1,5,,5-trimethyl-2-oxopyrrolidin-3(S)-yl)ethyl]-2(R)-[(2-amino-4-thiazolyl)methyl]butanediamide]
2 nM | CC(C)C[C@H](O)[C@H](O)[C@H](CC1CCCCC1)NC(=O)[C@@H](CC(=O)N(CC(=O)N(C)CCN1CCOCC1)[C@@H](C)c1ccccc1)Cc1csc(N)n1 [Compound 93, N^4 -{2-[methyl(2-morpholinoethyl)-amino]-2-oxoethyl}-N^4-[1(S)-phenylethyl]-N^1-[1(S)-(cyclohexylmethyl)-2(R),3(S)-dihydroxy-5-methylhexyl]-2(R)-[(2-amino-4-thiazolyl)methyl]-butanediamide]
2 nM | CC(C)C[C@H](O)[C@H](O)[C@H](CC1CCCCC1)NC(=O)[C@@H](CC(=O)N(CC(=O)N1CCOCC1)CC1CCCC1)Cc1csc(N)n1 [Compound 80, N^4-(cyclopentylmethyl)-N^4-(2-morpholino-2-oxoethyl)-N^1-[1(S)-(cyclohexylmethyl)-2(R),3(S)-dihydroxy-5-methylhexyl]-2(R)-[(2-amino-4-thiazolyl)methyl]butanediamide]
2.5 nM | CC(C)C[C@H](O)[C@H](O)[C@H](CC1CCCCC1)NC(=O)[C@@H](CC(=O)N(CC(=O)N(C)CCc1ccccn1)Cc1ccccc1)Cc1cscn1 [Compound 53, N^4-benzyl-N^4 -{2-{methyl[2-(2-pyridinyl)ethyl]amino}-2-oxoethyl}-N^1-[1(S)-(cyclohexylmethyl)-2(R),3(S)-dihydroxy-5-methylhexyl]-2(R)-(4-thiazolylmethyl)butanediamide]
3.5 nM | CC(C)C[C@H](O)[C@H](O)[C@H](CC1CCCCC1)NC(=O)[C@@H](CC(=O)N(CC(=O)N(C)C)C[C@@H](C)c1ccccc1)Cc1csc(N)n1 [Compound 61, N^4-[2-(dimethylamino)-2-oxoethyl]-N^4-[2(S)-phenylpropyl]-N^1-[1(S)-(cyclohexylmethyl)-2(R),3(S)-dihydroxy-5-methylhexyl]-2(R)-[(2-amino-4-thiazolyl)methyl]-butanediamide]
